Consider two substances from patent US8440637B2, “Combination treatment for the treatment of hepatitis C virus infection” (priority 2007, dated 2013).

l = locked nucleic acid (LNA); d = 2'-deoxy (DNA)

The conditions of data set [1]: mouse, in vivo. How it is done:
(§1) C57BL/6J female mice were fed on high fat diet for 13 weeks before the initiation of the SEQ ID NO: 63 treatment. […] Both hypercholesterolemic and normal mice were treated i.p. twice weekly with 5 mg/kg SEQ ID NO: 63 and the corresponding mismatch control for a study period of 5½ weeks. Blood samples were collected weekly and total plasma cholesterol was measured during the entire course of the study. Upon sacrificing the mice, liver and blood samples were prepared for total RNA extraction, miRNA and mRNA quantification, assessment of the serum transaminase levels, and liver histology.
Serum from each individual mouse was prepared as follows: Blood samples were stored at room temperature for 2 h before centrifugation (10 min, 3000 rpm at room temperature). After centrifugation, serum was harvested and frozen at −20° C.
ALT and AST measurement was performed in 96-well plates using ALT and AST reagents from ABX Pentra according to the manufacturer's instructions. In short, serum samples were diluted 2.5 fold with H2O and each sample was assayed in duplicate. After addition of 50 μl diluted sample or standard (multical from ABX Pentra) to each well, 200 μl of 37° C. AST or ALT reagent mix was added to each well. Kinetic measurements were performed for 5 min with an interval of 30 s at 340 nm and 37° C. using a spectrophotometer.

In data set [2] the test system is miR-122. The data set is described as follows: Total plasma cholesterol in hypercholesterolemic and normal mice, long-term treatment. It is filed as in vivo, mouse. The note with it: 5 mg/kg i.p. twice weekly. The method, then: as §1
C57BL/6J female mice (Taconic M&B Laboratory Animals, Ejby, Denmark) were used. All substances were formulated in physiological saline (0.9% NaCl) to final concentration allowing the mice to receive an intraperitoneal injection volume of 10 ml/kg.
In the diet induced obesity study, the mice received a high fat (60EN %) diet (D12492, Research Diets) for 13 weeks to increase their blood cholesterol level before the dosing started. The dose regimen was stretched out to 5½ weeks of 5 mg/kg LNA-antimiR™ twice weekly. Blood plasma was collected once a week during the entire dosing period. After completion of the experiment the mice were sacrificed and RNA extracted from the livers for further analysis. Serum was also collected for analysis of liver enzymes.
Immediately before sacrifice retro-orbital sinus blood was collected in EDTA-coated tubes followed by isolation of the plasma fraction. Total plasma cholesterol was analysed using ABX Pentra Cholesterol CP (Horiba Group, Horiba ABX Diagnostics) according to the manufacturer's instructions.

Data set [3] is classed as in vitro ADME. The settings on record: 96 h. The method, then:
LNA oligonucleotide stability was tested in plasma from human or rats (it could also be mouse, monkey or dog plasma). In 45 μl plasma, 5 μl LNA oligonucleotide is added (at a final concentration of 20 μM). The LNA oligonucleotides are incubated in plasma for times ranging from 0 to 96 hours at 37° C.
At the indicated time the sample were snap frozen in liquid nitrogen. 2 μL (equals […]) LNA oligonucleotide in plasma was diluted by adding 15 μL of water and 3 μL 6× loading dye (Invitrogen). As marker a 10 bp ladder (Invitrogen, USA 10821-015) is used. To 1 μl ladder, 1 μl 6× loading and 4 μl water is added. The samples are mixed, heated to 65° C. for 10 min and loaded to a pre-run gel (16% acrylamide, 7 M UREA, 1×TBE, pre-run at 50 Watt for 1 h) and run at 50-60 Watt for […]. Subsequently, the gel is stained with 1× SyBR gold (molecular probes) in 1×TBE for 15 min. The bands were visualised using a phosphoimager from BioRad.
Stability of SEQ ID NO: 61 and SEQ ID NO: 61/miR-122a duplex were tested in mouse plasma at 37° C. over 96 hours. Shown in FIG. 12 is a SYBR-Gold stained PAGE.

Data set [4] has as its system miR-122. Type of data set: in vivo, mouse. The text has this: Liver cryo-sections from treated animals were subjected to in situ hybridizations for detection and localization of miR-122 and SEQ ID NO: 61 (FIG. 14). A probe complementary to miR-122 could detect miR-122a. A second probe was complementary to SEQ ID NO: 61. Shown in FIG. 14 is an overlay, in green is distribution and apparent amounts of miR-122a and SEQ ID NO: 61 and blue is DAPI nuclear stain, at 10× magnification. 100× magnifications reveal the intracellular distribution of miR-122a and SEQ ID NO: 61 inside the mouse liver cells.

The test system of data set [5] is miR-122. The data set is described as follows: Genome-wide liver expression profiling, Affymetrix Mouse Genome 430 2.0 arrays. Type of data set: in vivo. The method, then: We carried out genome-wide expression profiling of total RNA samples from saline LNA-antimiR-122 treated and LNA mismatch control treated mice livers 24 hours after the last dose using Affymetrix Mouse Genome 430 2.0 arrays. […] We subsequently examined the 3′ untranslated regions (UTRs) of the differentially expressed mRNAs for the presence of the 6 nt sequence CACTCC, corresponding to the reverse complement of the nucleotide 2-7 seed region in mature miR-122.
Expression profiles of livers of saline and LNA-antimiR treated mice were compared. NMRI female mice were treated with 25 mg/kg/day of LNA-antimiR along with saline control for three consecutive days and sacrificed 24 h, 1, 2 or 3 weeks after last dose. Additionally, expression profiles of livers of mice treated with the mismatch LNA control oligonucleotide 24 h after last dose were obtained. Three mice from each group were analyzed, yielding a total of […] expression profiles. RNA quality and concentration was measured using an Agilent 2100 Bioanalyzer and Nanodrop ND-1000, respectively. Total RNA was processed following the GeneChip Expression 3′-Amplification Reagents One-cycle cDNA synthesis kit instructions (Affymetrix Inc, Santa Clara, Calif., USA) to produce double-stranded cDNA. This was used as a template to generate biotin-labeled cRNA following manufacturer's specifications. Fifteen micrograms of biotin-labeled cRNA was fragmented to strands between 35 and 200 bases in length, of which 10 micrograms were hybridised onto Affymetrix Mouse Genome 430 2.0 arrays overnight in the GeneChip Hybridisation oven 6400 using standard procedures. The arrays were washed and stained in a GeneChip Fluidics Station 450. Scanning was carried out using the GeneChip Scanner 3000 and image analysis was performed using GeneChip Operating Software. Normalization and statistical analysis were done using the LIMMA software package for the R programming environment27. Probes reported as absent by GCOS software in all hybridizations were removed from the dataset. Additionally, an intensity filter was applied to the dataset to remove probes displaying background-corrected intensities below 16. Data were normalized using quantile normalization28. Differential expression was assessed using a linear model method. P values were adjusted for multiple testing using the Benjamini and Hochberg. Tests were considered to be significant if the adjusted p values were p<0.05. Clustering and visualization of Affymetrix array data were done using the MultiExperiment Viewer software29.

[6] abbreviates: liver, 24 hours after the last dose.

With “5′-CcAttGTcaCaCtCC-3′ (antisense CCATTGTCACACTCC; sugars from the 5' end ldlddllddldldll, backbone and methylation of C not given here) [SEQ ID NO: 63]”, in data set [1], the “ALT level (in words)” value is given as “possibly elevated ALT level”; the “alanine and aspartate aminotransferase (ALT and AST) levels compared to saline (in words)” value is on record as “No changes”. For the same substance, the “reduction of total plasma cholesterol compared to saline control” value with miR-122 [2] (hypercholesterolemic mice, after 10 days, sustained during the study) is given as “about 30%”. Further, in the data set on miR-122 [2] (normal diet mice), the “effect on total plasma cholesterol (in words)” value is recorded as “not as pronounced”.

On to “5′-ccAttGtcAcaCtcCa-3′ (antisense CCATTGTCACACTCCA; sugars from the 5' end ddlddlddlddlddld, backbone and methylation of C not given here) [SEQ ID NO: 61]”, for which the “stability in mouse plasma (in words)” value in data set [3] is on record as “completely stable over 96 hours”. For the same substance, the “miR-122 staining pattern in liver sections (in words)” value with miR-122 [4] (liver cryo-sections from treated mice versus saline) was “significantly reduced patchy staining pattern”. For the same substance, the “intracellular distribution of the oligonucleotide in hepatocytes (in words)” value in the data set on miR-122 [4] (mouse, in vivo) is reported as “evenly distributed in the entire cytoplasm”. In addition, the “differentially expressed mRNAs” value in the data set on miR-122 [5] (24 hours after the last LNA dose) came to 509. In addition, the differentially expressed genes is on record as 251 in the data set with miR-122 [5] (after one week) and 18 with miR-122 [5] (three weeks post treatment). In addition, the transcripts downregulated with miR-122 [5] (setting [6]) was 54. Moreover, the “transcripts upregulated compared to saline and LNA mismatch controls” value in the data set with miR-122 [5] (setting [6]) amounted to 455.
